#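 Growth conditions: 96-well plates. Treatment: test compound, 48 hours, 5 concentrations. Analysis: linear interpolation between bracketing concentrations; unreached endpoints set to highest concentration. At the GI50, growth is halved. The concentration for full growth arrest is given as TGI.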
# How the values were obtained:
# Assay in all cases: DTP human tumour cell line panel, 48 h
# RXF 393 renal = system: RXF 393 renal
# HOP-62 NSCLC = system: HOP-62 NSCLC
# HCT-116 colon = system: HCT-116 colon
# HS 578T breast = system: HS 578T breast
# HL-60(TB) leukemia = system: HL-60(TB) leukemia
# PC-3 prostate = system: PC-3 prostate
# OVCAR-8 ovarian = system: OVCAR-8 ovarian
# SK-OV-3 ovarian = system: SK-OV-3 ovarian
Structure (SMILES),TGI (RXF 393 renal),TGI (HOP-62 NSCLC),TGI (HCT-116 colon),TGI (HS 578T breast),TGI (HL-60(TB) leukemia),TGI (PC-3 prostate),TGI (OVCAR-8 ovarian),TGI (SK-OV-3 ovarian),GI50 (RXF 393 renal),GI50 (HOP-62 NSCLC),GI50 (HCT-116 colon),GI50 (HS 578T breast),GI50 (HL-60(TB) leukemia),GI50 (PC-3 prostate),GI50 (OVCAR-8 ovarian),GI50 (SK-OV-3 ovarian)
CCOP(=O)(OCC)C(c1ccccc1)N(C(=O)NC(F)(F)F)c1ccc(C)cc1 (centres undefined),> 100 µM,> 100 µM,> 100 µM,> 100 µM,> 100 µM,> 100 µM,> 100 µM,> 100 µM,–,–,–,–,–,–,–,–
N#Cc1nc(CN2C(=O)c3ccccc3C2=O)oc1N,> 100 µM,> 100 µM,> 100 µM,> 100 µM,–,> 100 µM,> 100 µM,> 100 µM,–,–,–,–,–,–,–,–
COc1ccc(-c2csc3c2[N+]2(C)C=CC=C2C3N2CCCC2)cc1 (centres undefined),> 100 µM,> 100 µM,> 100 µM,98.6 µM,> 100 µM,> 100 µM,> 100 µM,> 100 µM,–,–,–,–,–,–,–,–
C[C@@H]([C@H]1CC[C@@]2(C)[C@@H]3CC[C@@H]4C(=CC3=CC[C@]12C)CC[C@H](N(C)C)C4(C)C)N(C)C,> 100 µM,> 100 µM,> 100 µM,> 100 µM,> 100 µM,> 100 µM,> 100 µM,> 100 µM,–,–,–,–,–,–,–,–
COc1ccc(N=C(C)C(C)=Nc2ccc(OC)cc2)cc1,> 100 µM,> 100 µM,> 100 µM,> 100 µM,> 100 µM,> 100 µM,> 100 µM,> 100 µM,–,–,–,–,–,–,–,–
Cc1cc2ccccc2n2c1nc1ccc(O)cc12,> 10 µM,> 10 µM,> 10 µM,> 10 µM,> 10 µM,> 10 µM,> 10 µM,> 10 µM,–,–,–,–,–,–,–,–
C=CCCCN(C(=O)c1ccccc1)c1ccc(C(=O)OC)o1,> 100 µM,> 100 µM,> 100 µM,> 100 µM,> 100 µM,> 100 µM,> 100 µM,> 100 µM,–,–,–,–,–,–,–,–
COC1(C)CCC(OS(C)(=O)=O)CO1 (centres undefined),> 100 µM,> 100 µM,> 100 µM,> 100 µM,> 100 µM,> 100 µM,> 100 µM,> 100 µM,–,–,–,–,–,–,–,–
CC(=O)c1c(-c2ccco2)c(C#N)c(=S)n(C2OC(CO)C(O)C(O)C2O)c1C (centres undefined),> 100 µM,> 100 µM,> 100 µM,> 100 µM,> 100 µM,> 100 µM,> 100 µM,> 100 µM,–,–,–,–,–,–,–,–
O=C(NCc1cn(Cc2cccc(Oc3ccccc3)c2)nn1)c1cccnc1NCc1ccc(Cl)cc1,7.81 µM,> 100 µM,9.4 µM,> 100 µM,8.07 µM,> 100 µM,> 100 µM,69.2 µM,2.19 µM,5.69 µM,3.18 µM,2.72 µM,3.39 µM,2.96 µM,3.63 µM,3.32 µM
CC(Cl)(CCC(Cl)C(C)(C)Cl)C(=O)CBr (centres undefined),11.2 µM,32.5 µM,18.2 µM,58.1 µM,> 100 µM,28.2 µM,23.7 µM,26.9 µM,–,–,–,–,–,–,–,–
Cc1c(C(=O)O)sc2nc[nH]c(=O)c12,> 100 µM,> 100 µM,> 100 µM,79.5 µM,> 100 µM,> 100 µM,> 100 µM,> 100 µM,–,–,–,–,–,–,–,–
C/C(CC(O)(C(F)(F)F)C(F)(F)F)=N\O,> 10 µM,> 10 µM,> 10 µM,> 10 µM,> 10 µM,> 10 µM,> 10 µM,> 10 µM,–,–,–,–,–,–,–,–
Cc1cc(NS(=O)(=O)c2ccc(Nc3c4ccccc4nc4c(C(=O)NC(CO)(CO)CO)cccc34)cc2)no1,–,68.8 µM,–,52.7 µM,> 100 µM,> 100 µM,> 100 µM,> 100 µM,–,–,–,–,–,–,–,–
COc1ccc(NCn2nc(CCCCCCCCc3nn(CNc4ccc(OC)cc4)c(=S)o3)oc2=S)cc1,> 100 µM,> 100 µM,> 100 µM,–,–,> 100 µM,–,> 100 µM,–,–,–,–,–,–,–,–
CCC1OC2(C)CC(C#N)(C#N)C1(C#N)C(=N)O2 (centres undefined),> 100 µM,–,> 100 µM,> 100 µM,> 100 µM,> 100 µM,–,> 100 µM,–,–,–,–,–,–,–,–
Cc1ccc(N=Nc2c(O)ccc3ccccc23)c(C)c1,> 100 µM,> 100 µM,> 100 µM,> 100 µM,–,> 100 µM,> 100 µM,> 100 µM,–,–,–,–,–,–,–,–
CSCCC(NC(=O)C(Cc1c[nH]c2ccccc12)NC(=O)CCNC(=O)OC(C)(C)C)C(=O)NC(CC(=O)O)C(=O)NC(Cc1ccccc1)C(N)=O (centres undefined),> 50 µM,> 50 µM,> 50 µM,> 50 µM,> 50 µM,> 50 µM,–,> 50 µM,–,–,–,–,–,–,–,–
CCOC(=O)C1=C(N2CCCC2)C(=O)C(C(=O)OCC)C1 (centres undefined),> 100 µM,> 100 µM,> 100 µM,–,–,> 100 µM,> 100 µM,> 100 µM,–,–,–,–,–,–,–,–
CC1(C)Cc2ccccc2C(C)(Cl)C(=O)N1 (centres undefined),> 10 µM,> 10 µM,> 10 µM,–,> 10 µM,> 10 µM,> 10 µM,–,–,–,–,–,–,–,–,–
COc1ccc(-c2c(/C=N/OCC(=O)O)c3sc4ccccc4n3c2/C=N/OCC(=O)O)cc1,> 50 µM,> 50 µM,> 50 µM,> 50 µM,–,> 50 µM,> 50 µM,> 50 µM,–,–,–,–,–,–,–,–
Nc1ccnc2c1ncn2[C@H]1C[C@H](O)[C@@H](CO)O1,> 100 µM,> 100 µM,> 100 µM,> 100 µM,> 100 µM,> 100 µM,> 100 µM,–,–,–,–,–,–,–,–,–
COC(=O)CCCc1nc2ccccc2nc1N=Nc1ccccc1,> 100 µM,> 100 µM,> 100 µM,–,20.1 µM,> 100 µM,58.5 µM,> 100 µM,–,–,–,–,–,–,–,–
CN(C)Cc1cc(/C=C/C(=O)c2ccc(Br)cc2)cc(CN(C)C)c1O,74.5 µM,> 100 µM,29 µM,–,50.6 µM,> 100 µM,> 100 µM,55.1 µM,–,–,–,–,–,–,–,–
COc1ccc(/C=C/C(=O)c2cc(CN(C)C)c(O)c(CN(C)C)c2)cc1,> 100 µM,56.1 µM,> 100 µM,> 100 µM,54.5 µM,85.8 µM,> 100 µM,–,–,–,–,–,–,–,–,–
Oc1c(NCn2nc(CCCCCCCCc3nn(CNc4ccc5ccccc5c4O)c(=S)o3)oc2=S)ccc2ccccc12,> 100 µM,> 100 µM,50.4 µM,–,–,> 100 µM,–,> 100 µM,–,–,–,–,–,–,–,–
